Measured values from patent US11185523B2, “Use of bipolar trans carotenoids with chemotherapy and radiotherapy for treatment of cancer” (DIFFUSION PHARMACEUTICALS LLC, priority 2016, dated 2021).
Where two headings read alike, the source gives them in different places.

What was measured:
[1] = tested on: metastatic pancreatic cancer; conditions: metastatic disease, erlotinib with gemcitabine vs gemcitabine alone, cited from earlier work; for one-year survival rate: P=0.023; for median overall survival: P=0.038
[2] = tested on: metastatic pancreatic cancer; conditions: treatment naive patients with metastatic cancer; nab-paclitaxel plus gemcitabine vs gemcitabine; cited from earlier work
pancreatic cancer = conditions: cited from earlier work; for overall survival: Folfirinox regimen vs gemcitabine
DMBA breast tumors = assay: DMBA breast tumor model, TSC before chemotherapy; type: in vivo; conditions: TSC and control groups
Procedure: Breast tumors were induced through injection of DMBA (dimethylbenzantracene) under the mammary tissue of female rats. The tumors usually grow in most rats and reach measurable conditions after 10 days.
The following studies used a method in which a 3-mL syringe is filled first with 1 ml of DMBA dissolved in sunflower seed oil (20 mg DMBA per mL of solution). Following that, 2 mL's of air are pulled into the syringe. The needle of the syringe is then inserted under the mammary tissue near a hind leg and the air in the syringe is carefully injected. The injection of the air forms a “pocket”, and then the 1 mL of DMBA solution is injected into that pocket.
After the tumors have grown up (about 10 days), their volumes are estimated by measuring the diameter (d) and the length (L) of the football-shaped tumors formed. This is done using calipers after feeling the tumor with one's fingers. To estimate the volume of the tumor, you multiply the diameter squared times the length and divide by 2: Tumor volume (in mm3)={(d in mm)^22}×(L in mm)
TSC or saline (controls) was injected in the tail vein of the rats at a volume of 0.1 mL and a dose of 0.25 mg/kg TSC about 1-2 hours before the chemotherapeutic agent was injected intraperitoneally (IP) in the rats.
In order to understand which dosages are efficacious when used with chemotherapy, a rat model of breast tumors was used. The model involves injecting the chemical dimethylbenzanthracene (DMBA) under the mammary gland of a female Sprague-Dawley rat. After a few days, tumors begin to grow and can be measured by feeling the football-shaped tumor under the skin and measured using calipers.

newly diagnosed GBM = conditions: cited from earlier work
recurrent GBM = conditions: cited from earlier work

In the case of C#Cc1cccc(Nc2ncnc3cc(OCCOC)c(OCCOC)cc23)c1 [erlotinib], the one-year survival rate [1] is given as 23% and the median overall survival [1] is given as 6.24 months.
In the case of Nc1ccn([C@@H]2O[C@H](CO)[C@@H](O)C2(F)F)c(=O)n1 [gemcitabine, reference compound], the one-year survival rate [1] is listed as 17%, the median overall survival [1] is listed as 5.91 months and the overall survival [2] is listed as 6.7 months. The overall survival (pancreatic cancer) was 6.8 months, the mortality (DMBA breast tumors; gemcitabine 5 mg/kg IP on days 0, 3) was “Most rats in both groups were dead on Day 7” and the mortality (DMBA breast tumors; gemcitabine 10 mg/kg IP on days 0, 3) was “Most rats in both groups were dead on Day 6”.
In the case of Folfirinox, the overall survival (pancreatic cancer) is given as 11.1 months and the adverse events (pancreatic cancer; Folfirinox treatment) is given as “accompanied by serious adverse events”.
In the case of bevacizumab, the “symptom burden, quality of life, neurocognitive function” value (newly diagnosed GBM; human, in vivo) is given as “increased symptom burden, a worse quality of life, and a decline in neurocognitive function”, the progression free survival (newly diagnosed GBM; radiation, TMZ and bevacizumab vs only radiation and TMZ, both studies) is given as “increase in progression free survival” and the overall survival (newly diagnosed GBM; radiation, TMZ and bevacizumab vs only radiation and TMZ, two clinical trials) is given as “no difference in overall survival”. The overall six-month survival (recurrent GBM; Phase 2 study, recurrent GBM) was 54%, the six-month progression-free survival (recurrent GBM; Phase 2 study, recurrent GBM, historical 9-15%) was 25% and the six-month progression-free survival (recurrent GBM; another Phase 2 study, lower dose but higher frequency) was 42.6%.
